Laboratory results published in PMC7193532 (Acta Crystallographica. Section D, Structural Biology, 2020).
*1 amine or outer side, *2 acyl side, *3 side chain or, on linkers, in order; H or OH if unused. Where a SMILES comes first, the peptide text is derived from it. Bridges are numbered along the chain shown (N, C = ends). [ ]: non-standard residue; d: D form. The star is where a group is joined. ξ: configuration not given here. Phe(3R-OH) = O=C([C@@H](N[*:1])[C@H](O[*:3])c1ccccc1)[*:2]; NMeTrp(4-OMe) = CN[CH](Cc1c[nH]c2cccc(OC)c12)C(=O)O; X1 = O=C(C(N[*:1])C(O)c1ccccc1)[*:2]; NMeT = CN[CH](C(=O)O)[CH](C)O; NMeI = CC[CH](C)[CH](NC)C(=O)O; ξNMe2Val = CC(C)C(C(=O)*)N(C)C; NMeL = CN[CH](CC(C)C)C(=O)O; NMeV = CN[CH](C(=O)O)C(C)C

What was measured:
Assay type in all cases: binding
ClpC1-FL K85A = ClpC1-FL K85A (Mycobacterium tuberculosis, UniProt P9WPC9, K85A)
ClpC1-FL Q17A = ClpC1-FL Q17A (Mycobacterium tuberculosis, UniProt P9WPC9, Q17A)
ClpC1-FL L92S/L96P = ClpC1-FL L92S/L96P (Mycobacterium tuberculosis, UniProt P9WPC9, L92S/L96P)
ClpC1-NTD FER = ClpC1-NTD FER (Mycobacterium tuberculosis, UniProt P9WPC9); settings: relative to wild type
ClpC1-NTD MAFER = ClpC1-NTD MAFER (Mycobacterium tuberculosis, UniProt P9WPC9); settings: relative to wild type
ClpC1-NTD MVFER = ClpC1-NTD MVFER (Mycobacterium tuberculosis, UniProt P9WPC9); settings: relative to wild type
ClpC1-NTD AAFER = ClpC1-NTD AAFER (Mycobacterium tuberculosis, UniProt P9WPC9)
ClpC1-FL V14A = ClpC1-FL V14A (Mycobacterium tuberculosis, UniProt P9WPC9, V14A)

Structure (SMILES)	reduction of binding affinity, K85A (ClpC1-FL K85A)	reduction of binding, Q17A (ClpC1-FL Q17A)	binding to double mutant L92S/L96P (in words) (ClpC1-FL L92S/L96P)	reduction of binding affinity, deletion of Met1 (ClpC1-NTD FER)	decrease of binding, insertion of Ala before Phe2 (ClpC1-NTD MAFER) [fold]	reduction of binding, insertion of Val before Phe2 (ClpC1-NTD MVFER)	reduction of binding affinity, Met1Ala mutation and Ala insertion (ClpC1-NTD AAFER) [fold]	reduction of binding affinity, L92S/L96P (ClpC1-FL L92S/L96P)	reduction of binding affinity, V14A (ClpC1-FL V14A)
CCC(C)C(C(=O)NC1C(=O)N(C)C(C(C)O)C(=O)NC(C(C)C)C(=O)N(C)C(CC(C)C)C(=O)NC(C(C)C)C(=O)N(C)C(C(C)C)C(=O)N(C)C(Cc2c[nH]c3cccc(OC)c23)C(=O)NC(C(C)C)C(=O)NC(C(O)c2ccccc2)C(=O)NC(C(C)C)C(=O)OC1C)N(C)C(=O)C(NC(=O)C(C(C)C)N(C)C)C(C)C (centres unmarked) [ECU, ecumicin] (ξNMe2Val-V[NMeI]T[NMeT]V[NMeL]V[NMeV][NMeTrp(4-OMe)]V[X1]V; ester 3-C; configuration not given here)	ninefold	sevenfold	abolished binding	62 fold	72	82 fold	68	–	–
CN[C@H](C(=O)N[C@H](C(=O)N[C@@H]1C(=O)N(C)[C@@H]([C@@H](C)O)C(=O)N[C@@H](C(C)C)C(=O)N(C)[C@@H](CC(C)C)C(=O)N[C@@H](C(C)C)C(=O)N(C)[C@@H](C(C)C)C(=O)N(C)[C@@H](Cc2c[nH]c3cccc(OC)c23)C(=O)N[C@@H](C(C)C)C(=O)N[C@@H]([C@H](O)c2ccccc2)C(=O)N[C@@H](C(C)C)C(=O)O[C@@H]1C)C(C)C)C(C)C [OMS-A, ohmyungsamycin A] (H-[NMeV]VT[NMeT]V[NMeL]V[NMeV][NMeTrp(4-OMe)]V[Phe(3R-OH)]V; ester 3-C)	–	–	abolished binding	–	–	–	–	–	–
C/C=C/C[C@@H]1NC(=O)[C@H](CC(C)C)N(C)C(=O)[C@H](CC(C)C)NC(=O)[C@H](Cc2ccc(O)c([N+](=O)[O-])c2)NC(=O)[C@H](C)N2C(=O)[C@H](CC(C)C2O)N(C)C(=O)[C@H](Cc2cn(C(C)(C)C3CO3)c3ccccc23)NC1=O (some centres unmarked) [RUF-I, rufomycin I]	fivefold	17 fold	–	fivefold	–	sixfold	–	threefold	eightfold
